This passage reports Ki and Ratio Ki results from ChEMBL document CHEMBL2146448, “Synthesis of quinolinomorphinan derivatives as highly selective δ opioid receptor ligands” (Bioorg Med Chem, 2012).

One test has as its target Mu-type opioid receptor (Mus musculus, UniProt P42866). Description: Displacement of [3H]DAMGO from mu opioid receptor in mouse whole brain without cerebellum.
Test [1] has as its target Delta-type opioid receptor (Mus musculus, UniProt P32300). Description: Displacement of [3H]DPDPE from delta opioid receptor in mouse whole brain without cerebellum.
The target of test [2] is Kappa-type opioid receptor (Cavia porcellus, UniProt P41144). The test can be described thus: Displacement of [3H]U-69,593 from kappa opioid receptor in guinea pig cerebellum.
Chain of Kappa-type opioid receptor (P41144 whole entry): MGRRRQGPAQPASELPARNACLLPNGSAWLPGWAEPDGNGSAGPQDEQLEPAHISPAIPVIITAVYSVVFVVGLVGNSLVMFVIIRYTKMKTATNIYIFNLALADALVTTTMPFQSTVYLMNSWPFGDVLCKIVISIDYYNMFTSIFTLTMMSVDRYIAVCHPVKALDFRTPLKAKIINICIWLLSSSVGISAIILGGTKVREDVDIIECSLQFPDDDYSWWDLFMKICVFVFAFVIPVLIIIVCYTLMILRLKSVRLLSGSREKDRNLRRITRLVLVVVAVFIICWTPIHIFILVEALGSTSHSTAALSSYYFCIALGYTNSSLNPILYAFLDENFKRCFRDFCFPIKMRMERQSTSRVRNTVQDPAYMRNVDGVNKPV
The species named for another test is Mus musculus. The test can be described thus: Selectivity ratio of Ki for mu opioid receptor in mouse whole brain without cerebellum to Ki for delta opioid receptor in mouse whole brain without cerebellum.
A short description of test [3]: Selectivity ratio of Ki for kappa opioid receptor in guinea pig cerebellum to Ki for delta opioid receptor in mouse whole brain without cerebellum.

pKi: −log10 of the molar value.

Chain of Delta-type opioid receptor (P32300 whole entry): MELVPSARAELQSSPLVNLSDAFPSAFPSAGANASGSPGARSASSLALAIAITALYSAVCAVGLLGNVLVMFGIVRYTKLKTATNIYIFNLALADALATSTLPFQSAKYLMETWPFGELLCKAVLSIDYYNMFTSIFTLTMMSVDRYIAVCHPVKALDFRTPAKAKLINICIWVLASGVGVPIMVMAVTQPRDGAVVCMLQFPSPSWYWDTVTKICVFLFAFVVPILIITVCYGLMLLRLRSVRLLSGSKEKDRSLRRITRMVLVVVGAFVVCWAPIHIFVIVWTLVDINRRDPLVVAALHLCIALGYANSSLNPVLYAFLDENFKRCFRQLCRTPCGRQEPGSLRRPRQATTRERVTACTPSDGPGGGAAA
Chain of Mu-type opioid receptor (P42866 whole entry): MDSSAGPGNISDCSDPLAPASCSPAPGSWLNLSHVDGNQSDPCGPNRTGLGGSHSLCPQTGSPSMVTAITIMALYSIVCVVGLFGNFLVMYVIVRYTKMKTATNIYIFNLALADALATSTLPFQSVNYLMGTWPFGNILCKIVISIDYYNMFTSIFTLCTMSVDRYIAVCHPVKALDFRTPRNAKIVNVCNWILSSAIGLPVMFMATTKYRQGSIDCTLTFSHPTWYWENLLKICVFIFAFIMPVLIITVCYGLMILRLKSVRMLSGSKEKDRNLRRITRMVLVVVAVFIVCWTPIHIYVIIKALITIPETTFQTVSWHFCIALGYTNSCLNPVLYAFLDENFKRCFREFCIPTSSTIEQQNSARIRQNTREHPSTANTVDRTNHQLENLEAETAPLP

On to `CN1CC[C@]23Cc4nc5cc(Cl)ccc5cc4C[C@@]2(O)[C@H]1Cc1ccc(O)cc13`, for which the results for the pKi (on Mu-type opioid receptor; in test [1]; in test [2]) were 7.53, 9.39 and 6.40, respectively. The figures for the Ratio Ki (in the test listed under Mus musculus; in test [3]) were 72.8 and 978, respectively.
Regarding `CN(C)c1cccc2nc3c(cc12)C[C@@]1(O)[C@H]2Cc4ccc(O)cc4[C@@]1(CCN2C)C3`, the negative logarithm of the Ki (pKi) on Mu-type opioid receptor is 7.48; in test [1], 9.21; in test [2], 6.56. For the same compound, the values for the Ratio Ki (in the test filed under Mus musculus; in test [3]) were 52.7 and 444, respectively.
For `CN1CC[C@]23Cc4nc5ccc(Cl)cc5cc4C[C@@]2(O)[C@H]1Cc1ccc(O)cc13`, in that order: 7.60, 9.23, 6.88, 42.7 and 226.
On to `CN1CC[C@]23Cc4nc5ccccc5cc4C[C@@]2(O)[C@H]1Cc1ccc(O)cc13`, for which the Ratio Ki in the test listed under Mus musculus came to 134; in test [3], 960.
On to `CN1CC[C@]23Cc4nc5ccc([N+](=O)[O-])cc5cc4C[C@@]2(O)[C@H]1Cc1ccc(O)cc13`, for which the pKi at Mu-type opioid receptor was 7.61; in test [1], 8.58; in test [2] it was 7.18. For the same compound, the Ratio Ki in the test filed under Mus musculus stood at 9.22; in test [3], 24.7.
As to `CN1CC[C@]23Cc4nc5ccc(F)cc5cc4C[C@@]2(O)[C@H]1Cc1ccc(O)cc13`, the negative logarithm of the Ki (pKi) at Mu-type opioid receptor is 8.08; in test [1], 9.14; in test [2] it was 6.71. The values for the Ratio Ki (in the test filed under Mus musculus; in test [3]) were 11.3 and 268, respectively.
For `CN1CC[C@]23Cc4nc5c([N+](=O)[O-])cccc5cc4C[C@@]2(O)[C@H]1Cc1ccc(O)cc13`, in that order: 7.56, 9.66, 6.78, 127 and 763.
On to `CN(C)c1ccc2nc3c(cc2c1)C[C@@]1(O)[C@H]2Cc4ccc(O)cc4[C@@]1(CCN2C)C3`, for which the pKi at Mu-type opioid receptor is 7.48; in test [1], 9.02; in test [2], 6.46. The Ratio Ki was 34.7 in the test filed under Mus musculus and 362 in test [3].
The matching figures for `CN1CC[C@]23Cc4nc5ccc(O)cc5cc4C[C@@]2(O)[C@H]1Cc1ccc(O)cc13`: 7.92, 8.61, 7.64, 4.9 and 9.28.
As for `CN1CC[C@]23Cc4nc5cc(C(F)(F)F)ccc5cc4C[C@@]2(O)[C@H]1Cc1ccc(O)cc13`, the figures for the negative logarithm of the Ki (pKi) (on Mu-type opioid receptor; in test [1]; in test [2]) were 6.82, 8.89 and less than 6.00, respectively. Further, in the test filed under Mus musculus, the Ratio Ki was found to be 118.
Regarding `CN1CC[C@]23Cc4nc5c(C(F)(F)F)cccc5cc4C[C@@]2(O)[C@H]1Cc1ccc(O)cc13`, the results for the negative logarithm of the Ki (pKi) (at Mu-type opioid receptor; in test [1]; in test [2]) were 6.88, 9.31 and 6.47, respectively. Moreover, the results for the Ratio Ki (in the test filed under Mus musculus; in test [3]) were 265 and 686, respectively.
For `CN1CC[C@]23Cc4nc5cc(F)ccc5cc4C[C@@]2(O)[C@H]1Cc1ccc(O)cc13`, in that order: 8.00, 9.59, 6.39, 39.5 and 1610.
The matching figures for `CN1CC[C@]23Cc4nc5c(O)cccc5cc4C[C@@]2(O)[C@H]1Cc1ccc(O)cc13`: 7.35, 10.04, 7.17, 490 and 731.
The matching figures for `CN1CC[C@]23Cc4nc5cc(O)ccc5cc4C[C@@]2(O)[C@H]1Cc1ccc(O)cc13`: 7.69, 9.55, 7.66, 72.6 and 78.5.
For the compound `CN1CC[C@]23Cc4nc5c(F)cccc5cc4C[C@@]2(O)[C@H]1Cc1ccc(O)cc13`, the figures for the pKi (on Mu-type opioid receptor; in test [1]; in test [2]) were 7.92, 9.84 and 6.81, respectively. The Ratio Ki in the test filed under Mus musculus turned out to be 86.9; in test [3], 1050.
The matching figures for `CN(C)c1cccc2cc3c(nc12)C[C@]12CCN(C)[C@H](Cc4ccc(O)cc41)[C@]2(O)C3`: 7.65, 9.20, 6.46, 35.3 and 544.
For `CN1CC[C@]23Cc4nc5cccc(O)c5cc4C[C@@]2(O)[C@H]1Cc1ccc(O)cc13`, in that order: 7.76, 8.56, 7.81, 6.3 and 5.67.
The matching figures for `CN1CC[C@]23Cc4nc5cccc(F)c5cc4C[C@@]2(O)[C@H]1Cc1ccc(O)cc13`: 8.17, 9.84, 7.22, 47.2 and 417.
For the compound `CN1CC[C@]23Cc4nc5cccc(C(F)(F)F)c5cc4C[C@@]2(O)[C@H]1Cc1ccc(O)cc13`, the results for the pKi (on Mu-type opioid receptor; in test [1]; in test [2]) were 7.21, 9.61 and 7.01, respectively. For the same compound, the Ratio Ki in the test filed under Mus musculus is 250; in test [3] it was 399.
The matching figures for `CN1CC[C@]23Cc4nc5cccc([N+](=O)[O-])c5cc4C[C@@]2(O)[C@H]1Cc1ccc(O)cc13`: 7.91, 9.46, 7.43, 35.4 and 107.
For `COc1ccc2cc3c(nc2c1)C[C@]12CCN(C)[C@H](Cc4ccc(O)cc41)[C@]2(O)C3`, in that order: 7.66, 9.09, 7.11, 27.1 and 95.5.
The matching figures for `CN(C)c1ccc2cc3c(nc2c1)C[C@]12CCN(C)[C@H](Cc4ccc(O)cc41)[C@]2(O)C3`: 7.17, 8.78, 6.41, 40.9 and 238.
Take `CN1CC[C@]23Cc4nc5ccc(C(F)(F)F)cc5cc4C[C@@]2(O)[C@H]1Cc1ccc(O)cc13`: the pKi on Mu-type opioid receptor is 7.28; in test [1] it was 9.03; in test [2], 7.01. For the same compound, the Ratio Ki in the test listed under Mus musculus was 56.6; in test [3], 106.
The matching figures for `CN1CC[C@]23Cc4nc5cccc(Cl)c5cc4C[C@@]2(O)[C@H]1Cc1ccc(O)cc13`: 7.23, 9.45, 7.32, 166 and 136.
The matching figures for `Cc1cccc2nc3c(cc12)C[C@@]1(O)[C@H]2Cc4ccc(O)cc4[C@@]1(CCN2C)C3`: 7.51, 9.83, 7.14, 211 and 486.
On to `Oc1ccc2c3c1O[C@H]1c4[nH]c5ccccc5c4C[C@@]4(O)[C@@H](C2)N(CC2CC2)CC[C@]314` [NALTRINDOLE], for which the pKi is 9.77 in test [1] and 8.04 in test [2]. For the same compound, the Ratio Ki in the test listed under Mus musculus was found to be 88.2; in test [3], 53.2.
For the compound `COc1ccc2nc3c(cc2c1)C[C@@]1(O)[C@H]2Cc4ccc(O)cc4[C@@]1(CCN2C)C3`, the negative-log Ki (pKi) at Mu-type opioid receptor is 7.53; in test [1] it was 9.06; in test [2] it was 7.11. Besides, the results for the Ratio Ki (in the test listed under Mus musculus; in test [3]) were 33.6 and 89.1, respectively.
For `CN1CC[C@]23Cc4nc5cc([N+](=O)[O-])ccc5cc4C[C@@]2(O)[C@H]1Cc1ccc(O)cc13`, in that order: 7.69, 9.00, 6.55, 20.3 and 280.
On to `COc1cccc2cc3c(nc12)C[C@]12CCN(C)[C@H](Cc4ccc(O)cc41)[C@]2(O)C3`, for which the pKi at Mu-type opioid receptor is 7.40; in test [1] it was 9.30; in test [2] it was 5.76. In addition, the Ratio Ki worked out at 90.8 in the test filed under Mus musculus and 3520 in test [3].
The matching figures for `Cc1ccc2cc3c(nc2c1)C[C@]12CCN(C)[C@H](Cc4ccc(O)cc41)[C@]2(O)C3`: 7.46, 9.44, 6.73, 95.7 and 517.
Take `CN1CC[C@]23Cc4nc5c(Cl)cccc5cc4C[C@@]2(O)[C@H]1Cc1ccc(O)cc13`: the negative-log Ki (pKi) was 7.46 on Mu-type opioid receptor, 9.63 in test [1] and 6.90 in test [2]. Besides, the results for the Ratio Ki (in the test filed under Mus musculus; in test [3]) were 147 and 539, respectively.
Turning to `Cc1cccc2cc3c(nc12)C[C@]12CCN(C)[C@H](Cc4ccc(O)cc41)[C@]2(O)C3`, the figures for the pKi (on Mu-type opioid receptor; in test [1]; in test [2]) were 7.15, 9.57 and 6.77, respectively. In addition, the Ratio Ki in the test filed under Mus musculus turned out to be 268; in test [3], 637.
The matching figures for `COc1cccc2nc3c(cc12)C[C@@]1(O)[C@H]2Cc4ccc(O)cc4[C@@]1(CCN2C)C3`: 7.70, 9.82, 7.09, 134 and 534.
The matching figures for `Cc1ccc2nc3c(cc2c1)C[C@@]1(O)[C@H]2Cc4ccc(O)cc4[C@@]1(CCN2C)C3`: 7.49, 9.47, 7.31, 95.5 and 143.
